Tested on: CD8+ T cells
Experiment: In vitro immunogenicity: T-cell priming with aAPCs loaded with peptide/MHC and anti-CD28, pMHC multimer readout
Format: cell-based, human
Conditions: in vitro immunogenicity of HLA class I peptides; CD8+ T cells of healthy donors, three stimulation cycles, multimer staining
Description: In order to obtain information regarding the immunogenicity of the TUMAPs of the present invention, the inventors performed investigations using an in vitro T-cell priming assay based on repeated stimulations of CD8+ T cells with artificial antigen presenting cells (aAPCs) loaded with peptide/MHC complexes and anti-CD28 antibody.
In order to perform in vitro stimulations by artificial antigen presenting cells loaded with peptide-MHC complex (pMHC) and anti-CD28 antibody, the inventors first isolated CD8+ T cells from fresh HLA-A*02 leukapheresis products via positive selection using CD8 microbeads (Miltenyi Biotec, Bergisch-Gladbach, Germany) of healthy donors obtained from the University clinics Mannheim, Germany, after informed consent.
PBMCs and isolated CD8+ lymphocytes were incubated in T-cell medium (TCM) until use consisting of RPMI-Glutamax (Invitrogen, Karlsruhe, Germany) supplemented with 10% heat inactivated human AB serum (PAN-Biotech, Aidenbach, Germany), 100 U/ml Penicillin/100 μg/ml Streptomycin (Cambrex, Cologne, Germany), 1 mM sodium pyruvate (CC Pro, Oberdorla, Germany), 20 μg/ml Gentamycin (Cambrex). 2.5 ng/ml IL7 (PromoCell, Heidelberg, Germany) and 10 U/ml IL-2 (Novartis Pharma, Nürnberg, Germany) were also added to the TCM at this step.
Generation of pMHC/anti-CD28 coated beads, T-cell stimulations and readout was performed in a highly defined in vitro system using four different pMHC molecules per stimulation condition and 8 different pMHC molecules per readout condition.
The purified co-stimulatory mouse IgG2a anti human CD28 Ab 9.3 (Jung et al., 1987) was chemically biotinylated using Sulfo-N-hydroxysuccinimidobiotin as recommended by the manufacturer (Perbio, Bonn, Germany). Beads used were 5.6 μm diameter streptavidin coated polystyrene particles (Bangs Laboratories, Illinois, USA).
pMHC used for positive and negative control stimulations were A*0201/MLA-001 (peptide […] (SEQ ID NO. 303) from modified Melan-A/MART-1) and A*0201/DDX5-001 ([…] from DDX5, SEQ ID NO. 304), respectively.
800.000 beads/200 μl were coated in 96-well plates in the presence of 4×12.5 ng different biotin-pMHC, washed and 600 ng biotin anti-CD28 were added subsequently in a volume of 200 μl. Stimulations were initiated in 96-well plates by co-incubating […] CD8+ T cells with 2×10^5 washed coated beads in 200 μl TCM supplemented with 5 ng/ml IL-12 (PromoCell) for 3 days at 37° C. Half of the medium was then exchanged by fresh TCM supplemented with 80 U/ml IL-2 and incubating was continued for 4 days at 37° C. This stimulation cycle was performed for a total of three times. For the pMHC multimer readout using 8 different pMHC molecules per condition, a two-dimensional combinatorial coding approach was used as previously described (Andersen et al., 2012) with minor modifications encompassing coupling to 5 different fluorochromes. Finally, multimeric analyses were performed by staining the cells with Live/dead near IR dye (Invitrogen, Karlsruhe, Germany), CD8-FITC antibody clone SK1 (BD, Heidelberg, Germany) and fluorescent pMHC multimers. For analysis, a BD LSRII SORP cytometer equipped with appropriate lasers and filters was used. Peptide specific cells were calculated as percentage of total CD8+ cells. Evaluation of multimeric analysis was done using the FlowJo software (Tree Star, Oregon, USA). In vitro priming of specific multimer+ CD8+ lymphocytes was detected by comparing to negative control stimulations.

Row | Substance | Wells
1 | 293 (FLVDGSWSI; listed as Homo sapiens) [compound 293] | + (<20% = +)
2 | 298 (RYLEGTSCI; listed as Homo sapiens) [compound 298] | + (<20% = +)
3 | 300 (AYVLRLETL; listed as Homo sapiens) [compound 300] | + (<20% = +)
4 | 292 (GMMTAILGV; listed as Homo sapiens) [compound 292] | + (<20% = +)
5 | 291 (KLDETGNSL; listed as Homo sapiens) [compound 291] | + (<20% = +)
6 | 301 (AYKPGALTF; listed as Homo sapiens) [compound 301] | + (<20% = +)
7 | 296 (TYVDSSHTI; listed as Homo sapiens) [compound 296] | + (<20% = +)

Same assay, conditions: in vitro immunogenicity of HLA class I peptides; pMHC multimer readout after T-cell priming

Row | Substance | Wells positive [%]
8 | 197 (EYSLFPGQVVI; listed as Homo sapiens) [compound 197] | + (<20% = +)
9 | 141 (FLDKVLVAA; listed as Homo sapiens) [compound 141] | + (<20% = +)
10 | 149 (ILNTHITEL; listed as Homo sapiens) [compound 149] | + (<20% = +)
11 | 218 (YYKSTSSAF; listed as Homo sapiens) [compound 218] | + (<20% = +)
12 | 35 (FLLPFSTVYL; listed as Homo sapiens) [compound 35] | + (<20% = +)
13 | 5 (GIVAHIQEV; listed as Homo sapiens) [compound 5] | + (<20% = +)
14 | 285 (HYPPVQVLF; listed as Homo sapiens) [compound 285] | + (<20% = +)
15 | 269 (YFIDSTNLKTHF; listed as Homo sapiens) [compound 269] | + (<20% = +)
16 | 230 (KLQNIMMLL; listed as Homo sapiens) [compound 230] | ++++ (> = 70% = ++++)
17 | 90 (FLQDLEQRL; listed as Homo sapiens) [compound 90] | + (<20% = +)
18 | 26 (ALQEELTEL; listed as Homo sapiens) [compound 26] | + (<20% = +)
19 | 31 (TITETTVEV; listed as Homo sapiens) [compound 31] | + (<20% = +)

Tested on: HLA-A*24
Experiment: MHC binding assay, UV-ligand exchange with β2m ELISA, HLA-A*24
Parameters: species or system human
Conditions: binding to HLA-A*24 ranged by peptide exchange yield
Description: Candidate peptides for T cell based therapies according to the present invention were further tested for their MHC binding capacity (affinity). The individual peptide-MHC complexes were produced by UV-ligand exchange, where a UV-sensitive peptide is cleaved upon UV-irradiation, and exchanged with the peptide of interest as analyzed. Only peptide candidates that can effectively bind and stabilize the peptide-receptive MHC molecules prevent dissociation of the MHC complexes. To determine the yield of the exchange reaction, an ELISA was performed based on the detection of the light chain (β2m) of stabilized MHC complexes. The assay was performed as generally described in Rodenko et al. (Rodenko et al., 2006).
96 well MAXISorp plates (NUNC) were coated over night with 2 ug/ml streptavidin in PBS at room temperature, washed 4× and blocked for 1 h at 37° C. in 2% BSA containing blocking buffer. Refolded HLA-A*02:01/MLA-001 monomers served as standards, covering the range of 15-500 ng/ml. Peptide-MHC monomers of the UV-exchange reaction were diluted 100 fold in blocking buffer. Samples were incubated for 1 h at 37° C., washed four times, incubated with 2 ug/ml HRP conjugated anti-β2m for 1 h at 37° C., washed again and detected with TMB solution that is stopped with […]. Absorption was measured at 450 nm. Candidate peptides that show a high exchange yield (preferably higher than 50%, most preferred higher than 75%) are generally preferred for a generation and production of antibodies or fragments thereof, and/or T cell receptors or fragments thereof, as they show sufficient avidity to the MHC molecules and prevent dissociation of the MHC complexes.

Row | Substance | Peptide exchange
20 | 186 (IFPQFLYQF; listed as Homo sapiens) [compound 186] | ++++ (> = 75% = ++++)
21 | 168 (KYQDILETI; listed as Homo sapiens) [compound 168] | ++++ (> = 75% = ++++)
22 | 267 (KYMVYPQTF; listed as Homo sapiens) [compound 267] | ++++ (> = 75% = ++++)
23 | 211 (YYLEVGKTLI; listed as Homo sapiens) [compound 211] | ++++ (> = 75% = ++++)
24 | 179 (MYDSYWRQF; listed as Homo sapiens) [compound 179] | ++++ (> = 75% = ++++)
25 | 187 (TYLRDQHFL; listed as Homo sapiens) [compound 187] | ++++ (> = 75% = ++++)
26 | 173 (IYSWILDHF; listed as Homo sapiens) [compound 173] | ++++ (> = 75% = ++++)
27 | 274 (AYLHSHALI; listed as Homo sapiens) [compound 274] | ++++ (> = 75% = ++++)
28 | 216 (QYSSVFKSL; listed as Homo sapiens) [compound 216] | ++++ (> = 75% = ++++)
29 | 228 (KYTSWYVAL; listed as Homo sapiens) [compound 228] | ++++ (> = 75% = ++++)
30 | 160 (VYTLDIPVL; listed as Homo sapiens) [compound 160] | ++++ (> = 75% = ++++)
31 | 289 (KYPVEWAKF; listed as Homo sapiens) [compound 289] | ++++ (> = 75% = ++++)
32 | 181 (LYLDIINLF; listed as Homo sapiens) [compound 181] | ++++ (> = 75% = ++++)
33 | 175 (YYEVHKELF; listed as Homo sapiens) [compound 175] | ++++ (> = 75% = ++++)
34 | 277 (VYQGHTALL; listed as Homo sapiens) [compound 277] | ++++ (> = 75% = ++++)
35 | 192 (SYALLTYMI; listed as Homo sapiens) [compound 192] | ++++ (> = 75% = ++++)
36 | 276 (VYGFQWRHF; listed as Homo sapiens) [compound 276] | ++++ (> = 75% = ++++)

Next, values leading:

Row | Peptide exchange | Substance
37 | ++++ (> = 75% = ++++) | 272 (QYLQDAYSF; listed as Homo sapiens) [compound 272]
38 | ++++ (> = 75% = ++++) | 195 (TYSVSFPMF; listed as Homo sapiens) [compound 195]
39 | ++++ (> = 75% = ++++) | 161 (IYLVSIPEL; listed as Homo sapiens) [compound 161]
40 | ++++ (> = 75% = ++++) | 282 (KFVDSTFYL; listed as Homo sapiens) [compound 282]
41 | ++++ (> = 75% = ++++) | 177 (VYPWLGALL; listed as Homo sapiens) [compound 177]
42 | ++++ (> = 75% = ++++) | 278 (RYISDQLFTNF; listed as Homo sapiens) [compound 278]
43 | + (<20% = +) | 194 (EFGSLHLEFL; listed as Homo sapiens) [compound 194]
44 | ++++ (> = 75% = ++++) | 184 (VFQNFPLLF; listed as Homo sapiens) [compound 184]
45 | ++++ (> = 75% = ++++) | 280 (RYPDNLKHLYL; listed as Homo sapiens) [compound 280]
46 | ++++ (> = 75% = ++++) | 193 (RFHPTPLLL; listed as Homo sapiens) [compound 193]
47 | ++++ (> = 75% = ++++) | 166 (YYVESGKLF; listed as Homo sapiens) [compound 166]
48 | ++++ (> = 75% = ++++) | 172 (TYTTVPRVAF; listed as Homo sapiens) [compound 172]
49 | ++++ (> = 75% = ++++) | 217 (FFPPTRQMGLLF; listed as Homo sapiens) [compound 217]
50 | ++++ (> = 75% = ++++) | 202 (VYWDSAGAAHF; listed as Homo sapiens) [compound 202]
51 | ++++ (> = 75% = ++++) | 210 (IYTMIYRNL; listed as Homo sapiens) [compound 210]
52 | ++++ (> = 75% = ++++) | 227 (IFLDYEAGTLSF; listed as Homo sapiens) [compound 227]
53 | ++++ (> = 75% = ++++) | 271 (LYHDIFSRL; listed as Homo sapiens) [compound 271]

— patent publication US10098938B2, “Peptides and combination of peptides for use in immunotherapy against various cancers” (immatics biotechnologies GmbH, priority 2015, dated 2018)
